Measured values reported in the supplement of paper PMC10307832.

Columns and labels:
Assay in all cases: relative viability (nuclei count vs DMSO), 5 days (fraction); higher = more cells survive
Dinaciclib + AZD7762 = compound: CCc1cnn2c(NCc3ccc[n+]([O-])c3)cc(N3CCCC[C@H]3CCO)nc12 [Dinaciclib] + NC(=O)Nc1cc(-c2cccc(F)c2)sc1C(=O)N[C@H]1CCCNC1 [AZD7762] (partner 0.2 µM)
Procedure, shortened: (§1)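 Lung cancer cell lines in 1536-well plates were dosed by pin tool the day after seeding, either with one drug alone or with a fixed anchor-drug dose plus five library-drug doses (not always all listed) in √10 steps. After 5 days, cells were fixed and their nuclei stained in one step (final 0.05% Triton X-100, 1% formaldehyde, 1 ug/ml Hoechst), then counted on 4× images. Relative viability is the nuclei count in treated wells divided by that in vehicle wells. Values are medians of duplicate plates.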

Dinaciclib + Trametinib = compound: CCc1cnn2c(NCc3ccc[n+]([O-])c3)cc(N3CCCC[C@H]3CCO)nc12 [Dinaciclib] + CC(=O)Nc1cccc(-n2c(=O)n(C3CC3)c(=O)c3c(Nc4ccc(I)cc4F)n(C)c(=O)c(C)c32)c1 [Trametinib] (partner 0.02 µM)
Procedure, shortened: as §1

Dinaciclib + Luminespib = compound: CCc1cnn2c(NCc3ccc[n+]([O-])c3)cc(N3CCCC[C@H]3CCO)nc12 [Dinaciclib] + CCNC(=O)c1noc(-c2cc(C(C)C)c(O)cc2O)c1-c1ccc(CN2CCOCC2)cc1 [Luminespib] (partner 0.01 µM)
Procedure, shortened: as §1

Dinaciclib + Navitoclax = compound: CCc1cnn2c(NCc3ccc[n+]([O-])c3)cc(N3CCCC[C@H]3CCO)nc12 [Dinaciclib] + CC1(C)CCC(c2ccc(Cl)cc2)=C(CN2CCN(c3ccc(C(=O)NS(=O)(=O)c4ccc(N[C@H](CCN5CCOCC5)CSc5ccccc5)c(S(=O)(=O)C(F)(F)F)c4)cc3)CC2)C1 [Navitoclax] (partner 0.5 µM)
Procedure, shortened: as §1

Dinaciclib + Decitabine = compound: CCc1cnn2c(NCc3ccc[n+]([O-])c3)cc(N3CCCC[C@H]3CCO)nc12 [Dinaciclib] + Nc1ncn([C@H]2C[C@H](O)[C@@H](CO)O2)c(=O)n1 [Decitabine] (partner 2 µM)
Procedure, shortened: as §1

Row | Cell Line | relative viability (Dinaciclib + AZD7762; first compound 0.009487 µM) | relative viability (Dinaciclib + AZD7762; first compound 0.03 µM) | relative viability (Dinaciclib + AZD7762; first compound 0.09487 µM) | relative viability (Dinaciclib + AZD7762; first compound 0.3 µM) | relative viability (Dinaciclib + Trametinib; first compound 0.009487 µM) | relative viability (Dinaciclib + Trametinib; first compound 0.03 µM) | relative viability (Dinaciclib + Trametinib; first compound 0.09487 µM) | relative viability (Dinaciclib + Trametinib; first compound 0.3 µM) | relative viability (Dinaciclib + Luminespib; first compound 0.009487 µM) | relative viability (Dinaciclib + Luminespib; first compound 0.03 µM) | relative viability (Dinaciclib + Luminespib; first compound 0.09487 µM) | relative viability (Dinaciclib + Luminespib; first compound 0.3 µM) | relative viability (Dinaciclib + Navitoclax; first compound 0.009487 µM) | relative viability (Dinaciclib + Navitoclax; first compound 0.03 µM) | relative viability (Dinaciclib + Navitoclax; first compound 0.09487 µM) | relative viability (Dinaciclib + Navitoclax; first compound 0.3 µM) | relative viability (Dinaciclib + Decitabine; first compound 0.009487 µM) | relative viability (Dinaciclib + Decitabine; first compound 0.03 µM) | relative viability (Dinaciclib + Decitabine; first compound 0.09487 µM) | relative viability (Dinaciclib + Decitabine; first compound 0.3 µM)
1 | NCI-H1437 | 1.12 | 0.16 | 0.182 | 0.163 | 0.403 | 0.212 | 0.134 | 0.135 | 1.1 | 0.354 | 0.152 | 0.136 | 0.972 | 0.108 | 0.106 | 0.0962 | 0.405 | 0.194 | 0.182 | 0.197
2 | NCI-H1651 | 0.637 | 0.65 | 0.205 | 0.0865 | 0.785 | 0.668 | 0.173 | 0.072 | 0.695 | 0.554 | 0.0648 | 0.0578 | 0.745 | 0.289 | 0.0312 | 0.0396 | 0.705 | 0.391 | 0.105 | 0.0596
3 | NCI-H1666 | 1.01 | 0.691 | 0.32 | 0.321 | 0.731 | 0.431 | 0.57 | 0.49 | 1.07 | 0.361 | 0.357 | 0.305 | 0.848 | 0.186 | 0.227 | 0.244 | 0.831 | 0.487 | 0.326 | 0.333
4 | NCI-H1734 | 0.505 | 0.108 | 0.108 | 0.089 | 0.595 | 0.278 | 0.146 | 0.136 | 0.165 | 0.129 | 0.119 | 0.0997 | 0.714 | 0.122 | 0.07 | 0.0846 | 0.5 | 0.277 | 0.134 | 0.139
5 | NCI-H1755 | 0.49 | 0.306 | 0.211 | 0.219 | 0.786 | 0.46 | 0.225 | 0.202 | 0.395 | 0.624 | 0.147 | 0.14 | 1.01 | 0.596 | 0.122 | 0.123 | 0.754 | 0.733 | 0.261 | 0.239
6 | NCI-H1792 | 0.585 | 0.0463 | 0.032 | 0.0288 | 0.432 | 0.361 | 0.0776 | 0.0462 | 0.422 | 0.225 | 0.117 | 0.0889 | 0.678 | 0.174 | 0.0483 | 0.0639 | 0.522 | 0.373 | 0.0508 | 0.0591
7 | NCI-H1793 | 0.83 | 0.144 | 0.156 | 0.121 | 0.388 | 0.174 | 0.15 | 0.151 | 0.218 | 0.107 | 0.144 | 0.12 | 0.42 | 0.17 | 0.139 | 0.134 | 0.488 | 0.206 | 0.127 | 0.149
8 | NCI-H1915 | 0.763 | 0.354 | 0.115 | 0.0982 | 0.343 | 0.225 | 0.114 | 0.0978 | 0.292 | 0.142 | 0.0885 | 0.093 | 0.759 | 0.267 | 0.058 | 0.0578 | 0.253 | 0.24 | 0.131 | 0.12
